Source: PubChem BioAssay (NCI)
Values joined by “and” are separate entries in the source; they are usually repeats but may differ in a detail not shown here. Identical values can stand only once.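 Compound exposure: 48 hours, 5 concentrations, 96-well plates. GI50 is the concentration that inhibits growth by half. At the TGI there is no net growth.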

Tests used:
Assay in all cases: DTP human tumour cell line panel, 48 h
UO-31 renal = tested on: UO-31 renal
MCF7 breast = tested on: MCF7 breast
PC-3 prostate = tested on: PC-3 prostate
OVCAR-8 ovarian = tested on: OVCAR-8 ovarian
LOX IMVI melanoma = tested on: LOX IMVI melanoma
SF-295 CNS = tested on: SF-295 CNS
HT29 colon = tested on: HT29 colon
EKVX NSCLC = tested on: EKVX NSCLC
MDA-MB-468 breast = tested on: MDA-MB-468 breast
OVCAR-5 ovarian = tested on: OVCAR-5 ovarian
HCC-2998 colon = tested on: HCC-2998 colon
M14 melanoma = tested on: M14 melanoma
UACC-257 melanoma = tested on: UACC-257 melanoma
HCT-15 colon = tested on: HCT-15 colon
SNB-75 CNS = tested on: SNB-75 CNS
CAKI-1 renal = tested on: CAKI-1 renal
A498 renal = tested on: A498 renal
HOP-62 NSCLC = tested on: HOP-62 NSCLC
T-47D breast = tested on: T-47D breast
NCI-H460 lung = tested on: NCI-H460 lung
HL-60(TB) leukemia = tested on: HL-60(TB) leukemia
ACHN renal = tested on: ACHN renal
SN12C renal = tested on: SN12C renal
SNB-19 CNS = tested on: SNB-19 CNS
MDA-MB-435 = tested on: MDA-MB-435
SF-268 CNS = tested on: SF-268 CNS
NCI-H226 lung = tested on: NCI-H226 lung
MALME-3M melanoma = tested on: MALME-3M melanoma
HS 578T breast = tested on: HS 578T breast
K-562 leukemia = tested on: K-562 leukemia
NCI-H522 lung = tested on: NCI-H522 lung
RXF 393 renal = tested on: RXF 393 renal
A549 NSCLC = tested on: A549 NSCLC
OVCAR-3 ovarian = tested on: OVCAR-3 ovarian
COLO 205 colon = tested on: COLO 205 colon
TK-10 renal = tested on: TK-10 renal
SW-620 colon = tested on: SW-620 colon
OVCAR-4 ovarian = tested on: OVCAR-4 ovarian
KM12 colon = tested on: KM12 colon
NCI-H23 lung = tested on: NCI-H23 lung
SK-OV-3 ovarian = tested on: SK-OV-3 ovarian
MDA-MB-231 breast = tested on: MDA-MB-231 breast
IGROV1 ovarian = tested on: IGROV1 ovarian
SF-539 CNS = tested on: SF-539 CNS
SR leukemia = tested on: SR leukemia
DU-145 prostate = tested on: DU-145 prostate
SK-MEL-2 melanoma = tested on: SK-MEL-2 melanoma
MOLT-4 leukemia = tested on: MOLT-4 leukemia
SK-MEL-28 melanoma = tested on: SK-MEL-28 melanoma
UACC-62 melanoma = tested on: UACC-62 melanoma
SK-MEL-5 melanoma = tested on: SK-MEL-5 melanoma
U251 CNS = tested on: U251 CNS

Molecule `O=c1oc2ccc(-c3ccc(F)cc3F)cc2c(=O)n1-c1ccc(Cl)c(C(F)(F)F)c1` has a GI50 (UO-31 renal) of 3.45 µM, a TGI (UO-31 renal) of 14 µM and a GI50 (MCF7 breast) of 2.7 µM. For the same molecule, the TGI (MCF7 breast) was 10.4 µM, the GI50 (PC-3 prostate) was 2.04 µM and the TGI (PC-3 prostate) was 10.9 µM. For the same molecule, the GI50 (OVCAR-8 ovarian) was 4.38 µM, the TGI (OVCAR-8 ovarian) was 17.9 µM and the GI50 (LOX IMVI melanoma) was 3.9 µM. For the same molecule, the TGI (LOX IMVI melanoma) was 13.9 µM, the GI50 (SF-295 CNS) was 7.02 µM and the TGI (SF-295 CNS) was 20.5 µM. It also gave a GI50 (HT29 colon) of 16.7 µM, a TGI (HT29 colon) of 31.4 µM and a GI50 (EKVX NSCLC) of 2.85 µM. The TGI (EKVX NSCLC) was 12.2 µM, the GI50 (MDA-MB-468 breast) was 2.4 µM and 2.82 µM and the TGI (MDA-MB-468 breast) was 6.08 µM and 7.81 µM. The GI50 (OVCAR-5 ovarian) was 5.98 µM, the TGI (OVCAR-5 ovarian) was 21.4 µM and the GI50 (HCC-2998 colon) was 3.58 µM. The TGI (HCC-2998 colon) was 12.8 µM, the GI50 (M14 melanoma) was 0.0652 µM and the TGI (M14 melanoma) was 3.29 µM. For the same molecule, the GI50 (UACC-257 melanoma) was 3.41 µM, the TGI (UACC-257 melanoma) was 14.4 µM and the GI50 (HCT-15 colon) was 3.19 µM. The TGI (HCT-15 colon) was 12.4 µM, the GI50 (SNB-75 CNS) was 2.23 µM and the TGI (SNB-75 CNS) was 13.4 µM. The GI50 (CAKI-1 renal) was 2.29 µM, the TGI (CAKI-1 renal) was 8.98 µM and the GI50 (A498 renal) was 2.95 µM. It also gave a TGI (A498 renal) of 8.94 µM, a GI50 (HOP-62 NSCLC) of 4.18 µM and a TGI (HOP-62 NSCLC) of 14.6 µM. The GI50 (T-47D breast) was 2.42 µM, the TGI (T-47D breast) was 6.76 µM and the GI50 (NCI-H460 lung) was 3.27 µM. For the same molecule, the TGI (NCI-H460 lung) was 11.2 µM, the GI50 (HL-60(TB) leukemia) was 4.66 µM and the TGI (HL-60(TB) leukemia) was 47.2 µM. For the same molecule, the GI50 (ACHN renal) was 3.24 µM, the TGI (ACHN renal) was 12.3 µM and the GI50 (SN12C renal) was 2.89 µM. The TGI (SN12C renal) was 9.46 µM, the GI50 (SNB-19 CNS) was 3.28 µM and the TGI (SNB-19 CNS) was 13.4 µM. The GI50 (MDA-MB-435) was 3.49 µM, the TGI (MDA-MB-435) was 12.6 µM and the GI50 (SF-268 CNS) was 3.39 µM. The TGI (SF-268 CNS) was 11.9 µM, the GI50 (NCI-H226 lung) was 2.11 µM and the TGI (NCI-H226 lung) was 12.5 µM. For the same molecule, the GI50 (MALME-3M melanoma) was 2.62 µM, the TGI (MALME-3M melanoma) was 7.28 µM and the GI50 (HS 578T breast) was 2.6 µM. The TGI (HS 578T breast) was 8.26 µM, the GI50 (K-562 leukemia) was 3.18 µM and the TGI (K-562 leukemia) was greater than 100 µM. For the same molecule, the GI50 (NCI-H522 lung) was 2.52 µM, the TGI (NCI-H522 lung) was 7.84 µM and the GI50 (RXF 393 renal) was 2.21 µM. It also gave a TGI (RXF 393 renal) of 6.51 µM, a GI50 (A549 NSCLC) of 3.53 µM and a TGI (A549 NSCLC) of 13.1 µM. The GI50 (OVCAR-3 ovarian) was 3.22 µM, the TGI (OVCAR-3 ovarian) was 11 µM and the GI50 (COLO 205 colon) was 16.5 µM. For the same molecule, the TGI (COLO 205 colon) was 30.9 µM, the GI50 (TK-10 renal) was 3.98 µM and the TGI (TK-10 renal) was 11.7 µM. For the same molecule, the GI50 (SW-620 colon) was 3.93 µM, the TGI (SW-620 colon) was 14.9 µM and the GI50 (OVCAR-4 ovarian) was 4.19 µM. It also gave a TGI (OVCAR-4 ovarian) of 16.7 µM, a GI50 (KM12 colon) of 3.86 µM and a TGI (KM12 colon) of 14.8 µM. For the same molecule, the GI50 (NCI-H23 lung) was 2.47 µM, the TGI (NCI-H23 lung) was 8.59 µM and the GI50 (SK-OV-3 ovarian) was 2.3 µM. For the same molecule, the TGI (SK-OV-3 ovarian) was 6.3 µM, the GI50 (MDA-MB-231 breast) was 2.35 µM and the TGI (MDA-MB-231 breast) was 6.97 µM. It also gave a GI50 (IGROV1 ovarian) of 4.42 µM, a TGI (IGROV1 ovarian) of 15.8 µM and a GI50 (SF-539 CNS) of 3.9 µM. The TGI (SF-539 CNS) was 14.7 µM, the GI50 (SR leukemia) was 1.79 µM and the TGI (SR leukemia) was 5.54 µM. The GI50 (DU-145 prostate) was 4.03 µM, the TGI (DU-145 prostate) was 14.3 µM and the GI50 (SK-MEL-2 melanoma) was 2 µM. It also gave a TGI (SK-MEL-2 melanoma) of 5.02 µM, a GI50 (MOLT-4 leukemia) of 2.85 µM and a TGI (MOLT-4 leukemia) of 15 µM. The GI50 (SK-MEL-28 melanoma) was 4.3 µM, the TGI (SK-MEL-28 melanoma) was 15.9 µM and the GI50 (UACC-62 melanoma) was 2.89 µM. The TGI (UACC-62 melanoma) was 10.4 µM, the GI50 (SK-MEL-5 melanoma) was 1.96 µM and the TGI (SK-MEL-5 melanoma) was 4.04 µM. The GI50 (U251 CNS) was 3.23 µM and the TGI (U251 CNS) was 11.1 µM.
